Results on 14 compounds are retold here after patent US10584115B2, “Substituted pyridine and pyrazine BMI-1 inhibitors” (PTC Therapeutics, Inc., priority 2013, dated 2020).

The test system of one assay is Bmi-1 protein. The assay can be described thus: Sandwich ELISA Assay (Bmi-1 protein level in HT-1080 cells after compound treatment). The settings on record: Table 1, Bmi-1 sandwich ELISA, read-out: ELISA EC50 value for Bmi-1 protein. It is filed as cell-based. In a few lines:
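Sandwich ELISA quantified Bmi-1 protein against recombinant standard (125–8000 pg/mL), with lysates captured overnight at 4 °C and signal by HRP/TMB at 450 nm (570 nm reference). Lysates came from HT-1080 cells incubated 40–48 h with test compounds in 0.5% DMSO.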
(In general: An ELISA detects its analyte on a solid surface through an enzyme-linked reagent.)
In general, EC50 refers to the concentration that produces a half-maximal response. As for `Cc1cccc2c1nc(C)n2-c1cncc(Nc2ccc(C(F)(F)F)cc2)n1` [compound 283, 6-(2,4-dimethyl-1H-benzimidazol-1-yl)-N-[4-(trifluoromethyl)phenyl]pyrazin-2-amine], the EC50 lay within 10 to 100 nM. The same measure, in the same setting: next, `Cc1nc2c([N+](=O)[O-])cccc2n1-c1cncc(Nc2ccc(C(F)(F)F)cc2)n1` [compound 284, 6-(2-methyl-4-nitro-1H-benzimidazol-1-yl)-N-[4-(trifluoromethyl)phenyl]pyrazin-2-amine]: 100 to 3000 nM. Take `Cc1nc2ccc(N)cc2n1-c1cncc(Nc2ccc(C(F)(F)F)cc2)n1` [compound 285, 2-methyl-1-(6-{[4-(trifluoromethyl)phenyl]amino}pyrazin-2-yl)-1H-benzimidazol-6-amine]: the EC50 was 10 to 100 nM. `N#Cc1cc(Nc2ccc(C(F)(F)F)cc2)nc(-c2c(CO)nc3ccccn23)c1` [compound 288, 2-[2-(hydroxymethyl)imidazo[1,2-a]pyridin-3-yl]-6-{[4-(trifluoromethyl)phenyl]amino}pyridine-4-carbonitrile]: the EC50 lay in the range of 10 to 100 nM. With `Cc1nc2ncccc2n1-c1cc(NC(=O)OC(C)(C)C)cc(Nc2ccc(C(F)(F)F)cc2)n1` [compound 290, tert-butyl[2-(2-methyl-1H-imidazo[4,5-b]pyridin-1-yl)-6-{[4-(trifluoromethyl)phenyl]amino}pyridin-4-yl]carbamate], the EC50 lay in the range of 100 to 3000 nM.

With `OCCNc1cc(Nc2ccc(C(F)(F)F)cc2)nc(-c2c(C(F)(F)F)nc3ccc(F)cn23)c1` [compound 291, 2-[(2-[6-fluoro-2-(trifluoromethyl)imidazo[1,2-a]pyridin-3-yl]-6-{[4-(trifluoromethyl)phenyl]amino}pyridin-4-yl)amino]ethanol], the EC50 is 10 to 100 nM.

As to `Cc1nc2ncccc2n1-c1cc(N)cc(Nc2ccc(C(F)(F)F)cc2)n1` [compound 292, 6-(2-methyl-1H-imidazo[4,5-b]pyridin-1-yl)-N^2-[4-(trifluoromethyl)phenyl]pyridine-2,4-diamine], the concentration for a half-maximal effect (EC50) was 1 to 10 nM. Same read-out and setting: the result for `Fc1cnc2nc(C3CC3)n(-c3cncc(Nc4ccc(C(F)(F)F)cc4)n3)c2c1` [compound 293, 6-(2-cyclopropyl-6-fluoro-1H-imidazo[4,5-b]pyridin-1-yl)-N-[4-(trifluoromethyl)phenyl]pyrazin-2-amine] reads 10 to 100 nM.

As for `Cc1nc2cc(F)c(F)cc2n1-c1cncc(Nc2ccc(Cl)c(F)c2)n1` [compound 294, N-(4-chloro-3-fluorophenyl)-6-(5,6-difluoro-2-methyl-1H-benzimidazol-1-yl)pyrazin-2-amine], the concentration giving a half-maximal response (EC50) is 100 to 3000 nM. Regarding `Cc1nc2cc(F)c(F)cc2n1-c1cncc(Nc2ccc(C(F)(F)F)c(F)c2)n1` [compound 295, 6-(5,6-difluoro-2-methyl-1H-benzimidazol-1-yl)-N-[3-fluoro-4-(trifluoromethyl)phenyl]pyrazin-2-amine], the 50% effective concentration (EC50) was in the range of 10 to 100 nM.

As for `Cc1nc2c(N)cccc2n1-c1cncc(Nc2ccc(C(F)(F)F)cc2)n1` [compound 296, 2-methyl-1-(6-{[4-(trifluoromethyl)phenyl]amino}pyrazin-2-yl)-1H-benzimidazol-4-amine], the 50% effective concentration (EC50) fell in the range of 10 to 100 nM.

The assay is the same for the next values; noted with them: read-out: ELISA EC50 value for Bmi-1 protein, Table 1, Bmi-1 sandwich ELISA.
As for `Cc1c(-c2cncc(Nc3ccc(OC(F)F)cc3)n2)c(C(F)(F)F)nn1C` [compound 280, N-[4-(difluoromethoxy)phenyl]-6-[1,5-dimethyl-3-(trifluoromethyl)-1H-pyrazol-4-yl]pyrazin-2-amine], the EC50 lay in the range of 10 to 100 nM. The same measure, in the same setting: next, `O=[N+]([O-])c1cc(Nc2ccc(C(F)(F)F)cc2)nc(-c2c(C(F)(F)F)nc3ccc(F)cn23)c1` [compound 286, 6-[6-fluoro-2-(trifluoromethyl)imidazo[1,2-a]pyridin-3-yl]-4-nitro-N-[4-(trifluoromethyl)phenyl]pyridin-2-amine]: 10 to 100 nM.

`Nc1cc(Nc2ccc(C(F)(F)F)cc2)nc(-c2c(C(F)(F)F)nc3ccc(F)cn23)c1` [compound 287, 6-[6-fluoro-2-(trifluoromethyl)imidazo[1,2-a]pyridin-3-yl]-N^2-[4-(trifluoromethyl)phenyl]pyridine-2,4-diamine]: the EC50 lay within 10 to 100 nM.
